Source: patent US20080219972A1, “Prostatic Acid Phosphatase (Pap) Materials and Methods of Use Thereof in the Prophylactic and Therapeutic Treatment of Prostate Cancer” (UNIVERSITY OF MARYLAND, BALTIMORE, priority 2005, published 2008)

System: CD4 T-cells from PBMC of HLA-DRB1*1501-positive GP patients and normal male donors
Test: Human CD4 T-cell line responses to PAP polypeptides (IFN-γ ELISPOT, proliferation assay, IFN-γ ELISA)
Type: cell-based
Description: The PAP polypeptides identified above were tested in human cultures. CD4 T-cell lines, which were specific for polypeptide 15 or polypeptide 19, were established from PBMC of HLA-DRB1*1501-positive GP patients and normal male donors by repeated stimulations with the polypeptide 19. After two rounds of in vitro stimulation, T-cells were plated at 2×10^4 cells/well in 96-well, round-bottomed plates, and stimulated by irradiated autologous PBMC in the presence/absence of polypeptide 19 or control polypeptide 15.
No polypeptide-specific responses were detected in primary PBMC cultures by IFN-γ ELISPOT, proliferation assay, or IFN-γ ELISA. When CD4 T-cells were stimulated with polypeptide […], cells from three of five GP patients and three of four normal male donors responded to the specific peptide in secondary cultures.
The HLA restriction of the cell line was confirmed using an immortalized B-cell line derived from a patient with type II Bare Lymphocyte Syndrome (BLC cells) and engineered to express HLA-DRB1*1501.
A CD4 T-cell line, which was developed from patient Pr131 by repeated stimulation with polypeptide 19, recognized human and mouse homolog polypeptides.

ESEEFLKRLHPYKSFLD TLS (ESEEFLKRLHPYKSFLDTLS; listed as Mus musculus) [mouse homolog, mouse polypeptide corresponding to human polypeptide 19, six amino acid substitutions]
avidity relative to human polypeptide 19 (inferred from concentration range of response): higher avidity
recognition by Pr131 CD4 T-cell line raised with polypeptide 19 (line developed by repeated stimulation with polypeptide 19): recognized
response of Pr131 CD4 T-cell line stimulated with irradiated autologous PBMC (seen in a broader range of concentration): strong response
